Experimental data taken from ChEMBL document CHEMBL3045580, “New aspect of gallic esters: marked effect on termite feeding” (J Pestic Sci, 2011).
Activity calls are given as the source filed them. No cut-off for these calls is given here.

Columns and labels:
Type in all cases: functional, organism-based
[1] = system: Coptotermes formosanus; assay: Feeding stimulant effect in Coptotermes formosanus undifferentiated larvae using 0.5% w/w compound treated filter paper disks measured after 1 week by no-choice feeding test
[2] = system: Coptotermes formosanus; assay: Antifeeding activity against Coptotermes formosanus undifferentiated larvae assessed as induction of feeding deterrence using 0.5% w/w compound treated filter paper disks measured after 1 week by no-choice feeding test
[3] = system: Coptotermes formosanus; assay: Antifeeding activity against Coptotermes formosanus undifferentiated larvae assessed as induction of feeding deterrence compound treated filter paper disks measured after 1 week by no-choice feeding test

CCCCCCCCCCCCCCCCCCOC(=O)c1cc(O)c(O)c(O)c1
Activity [1]: Active

CCCCCCCCCCCCCCOC(=O)c1cc(O)c(O)c(O)c1
Activity [2]: Active

CCCCCCCCCCOC(=O)c1cc(O)c(O)c(O)c1 [DECYL GALLATE]
Activity [2]: Active | IC50 [3]: 0.05%

CCCCCCOC(=O)c1cc(O)c(O)c(O)c1
Activity [2]: Active

CCCCCCCCOC(=O)c1cc(O)c(O)c(O)c1
Activity [2]: Active

CCCOC(=O)c1cc(O)c(O)c(O)c1
Activity [2]: Active

CCCCCCCCCCCCOC(=O)c1cc(O)c(O)c(O)c1
Activity [2]: Active
